Values of other authors, collected in patent US6013628A, “Method for treating conditions of the eye using polypeptides” (Regents of the University of Minnesota, priority 1995, dated 2000).

Tests used:
[1] = test system: retinal pigmented epithelial cells; conditions: Avery et al. 1986; cited from earlier work
fibroblasts = conditions: cited from earlier work
[2] = test system: human scleral fibroblasts; conditions: cited from earlier work
[3] = test system: retinal pigmented epithelial cells; conditions: cited from earlier work
[4] = test system: proliferative vitreoretinopathy rabbit model; conditions: cited from earlier work

Substance | Adhesion of retinal pigmented epithelial cells to fibronectin, type I collagen, type II collagen and lens capsule basement membrane [1] | Fibroblast-mediated contraction of type I collagen gels (fibroblasts) | Proliferation of human scleral fibroblasts [2] | Proliferation of retinal pigmented epithelial cells [3] | Postoperative bleeding ([4]; rabbit, in vivo) | Development of intraocular fibrin membranes ([4]; standardized PVR rabbit model)
Arg-Gly-Asp-Ser (RGDS) | inhibit the adhesion | – | – | – | – | –
heparin | – | inhibit | inhibits the proliferation | inhibits the proliferation | increased postoperative bleeding was observed | prevent the development of intraocular fibrin membranes
